Consider three compounds from ChEMBL document CHEMBL4190314, “Quinoline hybrids and their antiplasmodial and antimalarial activities” (Eur J Med Chem, 2017).

Holding throughout (format): functional, organism-based
Assay [1] relates to Plasmodium falciparum. As to the kind of experiment: Antimalarial activity against chloroquine-resistant Plasmodium falciparum FcB1/Columbia infected in human type A+ erythrocytes after 48 hrs by [3H]-hypoxanthine incorporation assay.
In assay [2] the test system is Plasmodium falciparum. As to the kind of experiment: Antimalarial activity against chloroquine-resistant Plasmodium falciparum FCR-3/Gambia infected in human type A+ erythrocytes after 48 hrs by [3H]-hypoxanthine incorporation assay.
Assay [3] concerns Plasmodium falciparum. As to the kind of experiment: Antimalarial activity against chloroquine-resistant Plasmodium falciparum Palo Alto/Ouganda infected in human type A+ erythrocytes after 48 hrs by [3H]-hypoxanthine incorporation assay.
For assay [4], the system named is Plasmodium falciparum. As to the kind of experiment: Antimalarial activity against chloroquine-resistant Plasmodium falciparum FcM29 infected in human type A+ erythrocytes after 48 hrs by [3H]-hypoxanthine incorporation assay.
Assay [5] relates to Plasmodium falciparum. As to the kind of experiment: Antimalarial activity against chloroquine-sensitive Plasmodium falciparum D6 infected in human type A+ erythrocytes after 48 hrs by [3H]-hypoxanthine incorporation assay.
Assay [6] has as its system Plasmodium falciparum. As to the kind of experiment: Antimalarial activity against chloroquine-sensitive Plasmodium falciparum F32 infected in human type A+ erythrocytes after 48 hrs by [3H]-hypoxanthine incorporation assay.
For assay [7], the system named is Plasmodium falciparum. As to the kind of experiment: Antimalarial activity against chloroquine-sensitive Plasmodium falciparum Nigerian infected in human red blood cells after 48 hrs by [3H]-hypoxanthine incorporation assay.
Assay [8] concerns Plasmodium falciparum. As to the kind of experiment: Antimalarial activity against chloroquine-resistant Plasmodium falciparum FcB1 infected in human red blood cells after 48 hrs by [3H]-hypoxanthine incorporation assay.
The subject of assay [9] is Plasmodium falciparum. As to the kind of experiment: Antimalarial activity against chloroquine-resistant Plasmodium falciparum FcM29 infected in human red blood cells after 48 hrs by [3H]-hypoxanthine incorporation assay.
Assay [10] deals with Plasmodium falciparum. As to the kind of experiment: Antimalarial activity against chloroquine-sensitive Plasmodium falciparum NF54 infected in human type A+ erythrocytes after 48 hrs by [3H]-hypoxanthine incorporation assay.
The test system of assay [11] is Plasmodium falciparum. As to the kind of experiment: Antimalarial activity against chloroquine-sensitive Plasmodium falciparum FCH-5-C2 infected in human type A+ erythrocytes after 48 hrs by [3H]-hypoxanthine incorporation assay.
For assay [12], the system named is Plasmodium falciparum. As to the kind of experiment: Antimalarial activity against chloroquine-sensitive Plasmodium falciparum HB3 infected in human type A+ erythrocytes after 48 hrs by [3H]-hypoxanthine incorporation assay.
The test system of assay [13] is Plasmodium falciparum. As to the kind of experiment: Antimalarial activity against chloroquine-sensitive Plasmodium falciparum RF MEF3 infected in human type A+ erythrocytes after 48 hrs by [3H]-hypoxanthine incorporation assay.
In assay [14] the test system is Plasmodium falciparum. As to the kind of experiment: Antimalarial activity against chloroquine-sensitive Plasmodium falciparum Ro73 infected in human type A+ erythrocytes after 48 hrs by [3H]-hypoxanthine incorporation assay.
Assay [15] has as its system Plasmodium falciparum. As to the kind of experiment: Antimalarial activity against chloroquine-resistant Plasmodium falciparum RFCR-3 infected in human type A+ erythrocytes after 48 hrs by [3H]-hypoxanthine incorporation assay.
The test system of assay [16] is Plasmodium falciparum. As to the kind of experiment: Antimalarial activity against chloroquine-resistant Plasmodium falciparum ItG2F6 infected in human type A+ erythrocytes after 48 hrs by [3H]-hypoxanthine incorporation assay.
The subject of assay [17] is Plasmodium falciparum. As to the kind of experiment: Antimalarial activity against chloroquine-resistant Plasmodium falciparum INDO infected in human type A+ erythrocytes after 48 hrs by [3H]-hypoxanthine incorporation assay.
Assay [18] deals with Plasmodium falciparum. As to the kind of experiment: Antimalarial activity against chloroquine-resistant Plasmodium falciparum W2 infected in human type A+ erythrocytes after 48 hrs by [3H]-hypoxanthine incorporation assay.
The subject of assay [19] is Plasmodium falciparum. As to the kind of experiment: Antimalarial activity against chloroquine-resistant Plasmodium falciparum 7G8 infected in human type A+ erythrocytes after 48 hrs by [3H]-hypoxanthine incorporation assay.
Assay [20] has as its system Plasmodium falciparum. As to the kind of experiment: Antimalarial activity against chloroquine-resistant Plasmodium falciparum W2MEF infected in human type A+ erythrocytes after 48 hrs by [3H]-hypoxanthine incorporation assay.
Assay [21] relates to Plasmodium falciparum. As to the kind of experiment: Antimalarial activity against chloroquine-resistant Plasmodium falciparum T9/94 infected in human type A+ erythrocytes after 48 hrs by [3H]-hypoxanthine incorporation assay.
For assay [22], the system named is Plasmodium falciparum. As to the kind of experiment: Antimalarial activity against chloroquine-resistant Plasmodium falciparum K1 infected in human type A+ erythrocytes after 48 hrs by [3H]-hypoxanthine incorporation assay.

Turning to `CC1(C)COC2(CCC(N[C@H]3CC[C@H](Nc4ccnc5cc(Cl)ccc45)CC3)CC2)OO1` (some centres not stated), the IC50 in assay [1], in [2], in assay [3], in assay [4], in assay [5] and in assay [6] was 7 to 24 nM throughout.

Turning to `Fc1ccc(C(/C=C/C=C(\c2ccc(F)cc2)N2CCN(c3ccnc4cc(Cl)ccc34)CC2)=[N+]2CCN(c3ccnc4cc(Cl)ccc34)CC2)cc1`, the 50% inhibitory concentration (IC50) in assay [7] is 350 nM; in [8], 444 nM; in assay [9] it was 468 nM.

Consider `Clc1ccc2c(N[C@@H]3CCCC[C@H]3Nc3ccnc4cc(Cl)ccc34)ccnc2c1`, for which the IC50 in [10] is 6 nM; in [11], 4 to 13 nM; in assay [12], 4 nM; in assay [13], 4 to 13 nM; in [14] it was 4 to 13 nM; in assay [15] it was 4 to 13 nM. Also, the IC50 is 4 to 13 nM in assay [16]; 4 to 13 nM in assay [17]; 10 nM in [18]; 4 to 13 nM in assay [19]; 4 to 13 nM in assay [20]; 4 to 13 nM in assay [21]. 13 nM corresponded to half-maximal inhibition in assay [22] (IC50).

In general, IC50 refers to the concentration needed to halve the response being measured. Lower therefore signals greater potency.
